From patent US20250076320A1, “METHOD AND PROGRAM FOR DETECTING ADMINISTERED DRUG, AND DEVICE THEREFOR” (A&T CORPORATION, priority 2023, published 2025)

Tested on: prothrombin time (blood coagulation, extrinsic pathway)
Experiment: Clot waveform analysis with dry PT reagent containing magnetic particles on the CG02N blood coagulation analyzer
Conditions: samples receiving administration of rivaroxaban, PT-INR 2.0 or higher (22 samples); inclination from maximal movement level of magnetic particles to 5% attenuation; 25 μl sample; samples not receiving DOAC: −1219.8
From the text: When measurement is initiated, apparatus CG02N turns electromagnets at the bottom of the reaction cell on and off, and allows magnetic particles to move in the reaction cell. CG02N observes the movement of the magnetic particles as the amount of change in the scattered light, and analyzes the change with the elapse of time to determine clotting time. When the CG02N analyzer is used, the change in the movement signal of the magnetic particles over time is inversely correlated to the change in the viscosity of the dry reagent. As the clotting reaction advances, the viscosity in the reaction cell increases, and the movement of the magnetic particles becomes slower. The clot waveform is analyzed by determining a difference between the waveform value (scattered light) after a given period of time from the point when an electromagnet is turned on and the waveform value (scattered light) after a given period of time from the point when electromagnet is turned off. Differences in the waveform values are plotted with the elapse of time, and a point at which the waveform value is lowered by a given percentage from the maximal value (also referred to as “peak TOP”) is designated as the end point. The period from the peak TOP to the end point is measured to obtain the measured value (seconds). The term “clotting time” used herein refers to the period from the peak TOP to the end point. […]

O=C(NC[C@H]1CN(c2ccc(N3CCOCC3=O)cc2)C(=O)O1)c1ccc(Cl)s1 [rivaroxaban]
Slope of clot waveform, Mean: −805.9
